How the values were obtained:
[1] = tested on: client-owned dogs with persistent pathologic renal proteinuria due to CKD; experiment: Prospective, block-randomized, double-blind clinical trial of telmisartan versus enalapril; UPC measurement (phases I-III); type: in vivo, dog; conditions: for Average of UPC change day 30 / Average of UPC change day 60 / Average of UPC change day 90: change from baseline; for Average of UPC change day 30: day 30, all dogs; for Average of UPC change day 60: day 60, all dogs; for Average of UPC change day 60 / Average of UPC change day 90: up-titration allowed; for Average of UPC change day 90: day 90, all dogs; for proportion of dogs that experienced 50% reduction in UPC at day 30: telmisartan 1 mg/kg PO q 24 h, enalapril 0.5 mg/kg PO q 12 h, 16/20 versus 5/17 dogs, P=0.003; for Average of UPC change in dogs with added drug at Day 90, day 120: the other drug additionally administered between day 90 and day 120; for Average of percent UPC change day 30 / Average of percent UPC change day 60 / Average of percent UPC change day 90 / Average of percent UPC change day 120: percent change from baseline; for Average of percent UPC change day 120: the other drug (telmisartan or enalapril) additionally administered between day 90 and day 120
Text: Experimental Methods and Design. A prospective, block-randomized, double-blind clinical trial has been carried out. Fifty-four client-owned dogs with persistent pathologic renal proteinuria have been recruited over a 2-year period.
Animals. Azotemic and non-azotemic dogs (N=54) with hypertensive and non-hypertensive CKD have been recruited prospectively from patients presented to the hospital. Dogs included as cases will have confirmed persistent pathologic renal proteinuria due to CKD; in order to be classified as such, fulfillment of the criteria described below will be required.
Inclusion criteria. […] Abdominal ultrasound findings consistent with CKD (bilaterally small, irregular kidneys) and absence of renal neoplasia have also been documented.
Exclusion criteria. […] Dogs with suspected or confirmed hyper-adrenocorticism and diabetes mellitus have been included if their disease is considered well controlled with medical therapy.
Patient grouping for block randomization: Once included in the study and based on the presence/degree of azotemia, dogs have been grouped according to the International Renal Interest Society (IRIS) classification scheme for CKD. Those classified as IRIS stages 2-4 (serum creatinine ≥1.4 mg/dL with inappropriately dilute urine [USG<1.030]) have been considered azotemic (AZ), and those classified as IRIS stage 1 (creatinine <1.4 mg/dL) have been considered non-azotemic (non-AZ). Within each of these two groups, dogs will then be stratified according to IRIS recommendations for arterial pressure (AP) substaging. According to this scheme, dogs with persistent average indirect arterial systolic BP<150 mm Hg will be classified as AP0 (minimal risk for target organ damage). Those with persistent average indirect arterial systolic BP150 mm Hg have been classified as AP1-3 (at risk for target organ damage). Four groups will thus be identified:
Baseline. On inclusion (day 0), all owners have been required to read/sign a form consenting to their pets' participation in the study. The following baseline data have been collected for each case: full physical examination (performed by one of the study investigators), fundic examination, blood pressure measurement, serum chemistry panel, urinalysis, abdominal ultrasound, UPC and urine culture. The results of screening tests, if performed within 2 weeks of inclusion in the study, may be used as baseline information. Baseline UPC has been defined as the average of two measurements, taken 2 weeks apart, prior to enrollment.
ARB/ACEi therapy. […] Owners have been provided with appropriate contact numbers in the event of an emergency.
Antihypertensive/other therapy. For dogs that are classified as AP3 (SBP180 mmHg; 200 mmHg in sighthounds), a calcium channel blocker (CCB; amlodipine, 0.1 mg/kg PO q 24 hours) has been administered contemporaneously. […] All dogs have been started or maintained on a commercially available diet formulated to be low in phosphorus and protein, for at least 1 month prior to enrollment.
Monitoring: The monitoring protocol followed the recommendations of the IRIS Canine GN Study Group Standard Therapy Subgroup. All dogs have been rechecked on day 7, at which time physical examination, SBP, serum creatinine (sCr) and serum potassium (K) have been evaluated. An increase in sCr of >30% compared to baseline or identification of moderate/severe hyperkalemia (serum K>6.5 mmol/L) or systolic hypotension (SBP<120) has prompt the investigator unmasking and removal of the patient from the study. For dogs in which average SBP of approximately 180 mm Hg was reliably identified (i.e. dogs classified as AP3), amlodipine will be up-titrated to 0.1 mg/kg PO BID. Thereafter, dogs classified as AP3 have been rechecked at 7-day intervals to ensure efficacy of therapy with adjustment of antihypertensive therapy.

[2] = tested on: naturally occurring proteinuria; conditions: cited from earlier work
[3] = dogs without added drug at day 90

Row | Compound | Average of UPC change day 30 [1] | Average of UPC change day 60 [1] | Average of UPC change day 90 [1] | proportion of dogs that experienced 50% reduction in UPC at day 30 [1] | Average of UPC change in dogs with added drug at Day 90, day 30 [1] | Average of UPC change in dogs with added drug at Day 90, day 60 [1] | Average of UPC change in dogs with added drug at Day 90, day 90 [1] | Average of UPC change in dogs with added drug at Day 90, day 120 ([1]; day 120) | Average of UPC change in dogs without added drug at Day 90, day 30 [1, 3] | Average of UPC change in dogs without added drug at Day 90, day 60 [1, 3] | Average of UPC change in dogs without added drug at Day 90, day 90 [1, 3] | Average of percent UPC change day 30 [1] | Average of percent UPC change day 60 [1] | Average of percent UPC change day 90 [1] | Average of percent UPC change day 120 ([1]; day 120) | Average of UPC change in dogs without added drug at Day 90, day 120 ([1]; dogs without added drug at day 90, day 120) | subjects experiencing an increase in proteinuria despite therapy ([2]; 3/14 subjects) | subjects with clinically significant (i.e., 50%) reduction in proteinuria ([2]; 9/14 subjects)
1 | CCCc1nc2c(C)cc(-c3nc4ccccc4n3C)cc2n1Cc1ccc(-c2ccccc2C(=O)O)cc1 [Telmisartan, telmisartan] | −2,516 | −3.769 | −4.341 | 80% | −4.20 | −4.83 | −4.83 | −5.84 | −1.82 | −2.81 | −2.01 | −57.01% | −65.87% | −68.79% | −76.70^2% | – | – | –
2 | CCOC(=O)[C@H](CCc1ccccc1)N[C@@H](C)C(=O)N1CCC[C@H]1C(=O)O [Enalapril, enalapril] | −1.075 | −1.260 | −1.194 | 29.4% | −0.30 | −0.79 | −1.05 | −2.97 | −0.71 | −1.02 | −0.68 | −27.34% | −37.56% | −30.57% | −75.14^1% | −0.92 | 22% | 64%

Reference: patent US20220218671A1 (BOEHRINGER INGELHEIM VETMEDICA GMBH, priority 2019, published 2022)
